Here are results for one compound from patent publication US20260007673A1, “ROCK2 INHIBITORS FOR THE TREATMENT OF VIRAL INFECTIONS” (GRAVITON BIOSCIENCE BV, priority 2022, published 2026).

For one assay, the system named is SARS-CoV-2 Delta variant. It counts as in vivo, mice. Particulars: 100 and 300 mg/kg daily oral gavage.
In assay [1] the test system is SARS-CoV-2 Omicron variant. The assay is classed as in vivo, mice. Particulars: 100 and 300 mg/kg daily oral gavage, 7, 14, 21 days (FIG. 15B).

Consider `Cn1c(C(=O)N2CC(F)(F)C2)cc2ccc(-c3nccc(Nc4ccc(-c5cn[nH]c5)cc4)n3)cc21` [Compound 2, (6-(4-((4-(1H-pyrazol-4-yl)phenyl)amino)pyrimidin-2-yl)-1-methyl-1H-indol-2-yl)(3,3-difluoroazetidin-1-yl)methanone], for which the “viral load in the lung” value (with SARS-CoV-2 Delta variant; in assay [1]) was “effect was observed” in each case.
